# Measurements from patent publication US20260184663A1, “INDENE COMPOUNDS, PHARMACEUTICAL COMPOSITIONS THEREOF, AND THEIR THERAPEUTIC APPLICATIONS” (NucMito Pharmaceuticals co. Ltd., priority 2022, published 2026).
# Assays:
# Type in all cases: cell-based
# [1] = test system: MDA-MB-231 (breast cancer); assay: Antiproliferative activity (CCK-8 cell viability), MDA-MB-231; details: Homo sapiens, 72 h, read-out: Antiproliferative activity in cancerous cells, MDA-MB-231 (inhibition of cell growth); for inhibition at 3.3 µM: Compound concentration: 3.3 μM; for inhibition at 10 µM: Compound concentration: 10 μM
# In short: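 MDA-MB-231 breast cancer cells, grown in DMEM with 10% FBS, were plated in 96-well plates at 2,000-5,000 cells/well. Once attached, they were exposed to compound and incubated at 37° C. for 72 h. Viability was then measured with CCK-8 (10 μL per well, 4 h at 37° C.) by absorbance at 450 nm, relative to DMSO vehicle wells.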
# [2] = test system: HepG2 (liver cancer); assay: Antiproliferative activity (CCK-8 cell viability), HepG2; details: Homo sapiens, 72 h, read-out: Antiproliferative activity in cancerous cells, HepG2 (inhibition of cell growth); for inhibition at 3.3 µM: Compound concentration: 3.3 μM; for inhibition at 10 µM: Compound concentration: 10 μM
# In short: (§1)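 Cells grown in DMEM (HepG2, SW480), MEM (HeLa) or F-12K (A549), each with 10% FBS, then exposed to compound at 3.3, 10 or 30 μM for 72 h at 37 °C. CCK-8 absorbance at 450 nm; viability expressed as percent of DMSO-treated cells, graded as growth inhibition bands.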
# [3] = test system: SW480 (colon cancer); assay: Antiproliferative activity (CCK-8 cell viability), SW480; details: Homo sapiens, 72 h; for inhibition at 3.3 µM: Compound concentration: 3.3 μM; for inhibition at 3.3 µM / inhibition at 10 µM: read-out: Antiproliferative activity in cancerous cells, SW480 (inhibition of cell growth); for inhibition at 10 µM: Compound concentration: 10 μM
# In short: as §1
# [4] = test system: B16F10 (malignant melanoma); assay: Antiproliferative activity (CCK-8 cell viability), B16F10; details: Mus musculus, 72 h, read-out: Antiproliferative activity in cancerous cells, B16F10 (inhibition of cell growth); for inhibition at 3.3 µM: B16-F10, Compound concentration: 3.3 μM; for inhibition at 10 µM: B16-F10, Compound concentration: 10 μM
# In short: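 B16F10 melanoma cells grown in DMEM with 10% FBS were plated in 96-well plates at 2,000-5,000 cells/well. After attachment they were exposed to compound in medium for 72 h at 37° C. CCK-8 solution (10 μL) was then added, and after 4 h at 37° C absorbance was read at 450 nm.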
# [5] = test system: A431 (epidermoid carcinoma); assay: Antiproliferative activity (CCK-8 cell viability), A431; details: Homo sapiens, 72 h, read-out: Antiproliferative activity in cancerous cells, A431 (inhibition of cell growth); for inhibition at 3.3 µM: A-431, Compound concentration: 3.3 μM; for inhibition at 10 µM: A-431, Compound concentration: 10 μM
# In short: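 A431 epidermoid carcinoma cells grown in DMEM with 10% FBS were plated at 2,000-5,000 cells/well in 96-well plates. After attachment they were exposed to compound at 3.3 μM, 10 μM, or 30 μM for 72 h at 37° C. Viability was then assessed by CCK-8 against DMSO vehicle-treated wells.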
# [6] = test system: A549 (lung adenocarcinoma); assay: Antiproliferative activity (CCK-8 cell viability), A549; details: Homo sapiens, 72 h, read-out: Antiproliferative activity in cancerous cells, A549 (inhibition of cell growth); for inhibition at 3.3 µM: Compound concentration: 3.3 μM; for inhibition at 10 µM: Compound concentration: 10 μM
# In short: as §1
# [7] = test system: HeLa (cervical cancer); assay: Antiproliferative activity (CCK-8 cell viability), HeLa; details: Homo sapiens, 72 h, read-out: Antiproliferative activity in cancerous cells, HELA (inhibition of cell growth); for inhibition at 3.3 µM: Compound concentration: 3.3 μM; for inhibition at 10 µM: Compound concentration: 10 μM
# In short: as §1
Structure (SMILES),inhibition at 3.3 µM [1],inhibition at 10 µM [1],inhibition at 3.3 µM [2],inhibition at 10 µM [2],inhibition at 3.3 µM [3],inhibition at 10 µM [3],inhibition at 3.3 µM [4],inhibition at 10 µM [4],inhibition at 3.3 µM [5],inhibition at 10 µM [5],inhibition at 3.3 µM [6],inhibition at 10 µM [6],inhibition at 3.3 µM [7],inhibition at 10 µM [7],"inhibition at 30 µM ([3]; Compound concentration: 30 μM, read-out: Antiproliferative activity in cancerous cells, SW480)"
"CCc1ccc2c(c1)C(CC(=O)O)=C(C)/C2=C/c1cccc(COc2ccc(F)cc2)c1 [B71, (Z)-2-(5-Ethyl-1-(3-((4-fluorophenoxy)methyl)benzylidene)-2-methyl-1H-inden-3-yl)acetic acid]",< 30%,≥ 50%,< 30%,< 30%,< 30%,< 30%,< 30%,≥ 50%,≥ 50%,≥ 50%,30 to 50%,≥ 50%,< 30%,≥ 50%,–
"CC1=C(CC(=O)O)c2cc(F)ccc2/C1=C\c1ccc(COc2ccc(Cl)cc2)cc1Br [B72, (Z)-2-(1-(2-Bromo-4-((4-chlorophenoxy)methyl)benzylidene)-5-fluoro-2-methyl-1H-inden-3-yl)acetic acid]",30 to 50%,30 to 50%,≥ 50%,≥ 50%,30 to 50%,30 to 50%,≥ 50%,≥ 50%,≥ 50%,≥ 50%,≥ 50%,≥ 50%,≥ 50%,≥ 50%,30 to 50%
"CC1=C(CC(=O)O)c2cc(F)ccc2/C1=C\c1ccc(COc2ccc(Cl)cc2)cc1C [B73, (Z)-2-(1-(4-((4-Chlorophenoxy)methyl)-2-methylbenzylidene)-5-fluoro-2-methyl-1H-inden-3-yl)acetic acid]",< 30%,< 30%,< 30%,≥ 50%,30 to 50%,≥ 50%,30 to 50%,30 to 50%,≥ 50%,≥ 50%,< 30%,≥ 50%,30 to 50%,≥ 50%,–
"CC1=C(CC(=O)O)c2cc(F)ccc2/C1=C\c1ccc(COc2ccc(F)cc2)cc1Br [B74, (Z)-2-(1-(2-Bromo-4-((4-fluorophenoxy)methyl)benzylidene)-5-fluoro-2-methyl-1H-inden-3-yl)acetic acid]",< 30%,30 to 50%,≥ 50%,≥ 50%,< 30%,< 30%,30 to 50%,≥ 50%,< 30%,30 to 50%,30 to 50%,30 to 50%,< 30%,≥ 50%,–
"CC1=C(CC(=O)O)c2cc(F)ccc2/C1=C\c1ccc(COCc2ccc(F)cc2)cc1 [B101, (Z)-2-(5-Fluoro-1-(4-(((4-fluorobenzyl)oxy)methyl)benzylidene)-2-methyl-1H-inden-3-yl)acetic acid]",≥ 50%,≥ 50%,30 to 50%,≥ 50%,< 30%,≥ 50%,< 30%,≥ 50%,< 30%,30 to 50%,30 to 50%,≥ 50%,< 30%,≥ 50%,–
"CC1=C(CC(=O)O)c2cc(F)ccc2/C1=C\c1ccc(COCc2ccc(C)cc2)cc1 [B102, (Z)-2-(5-Fluoro-2-methyl-1-(4-(((4-methylbenzyl)oxy)methyl)benzylidene)-1H-inden-3-yl)acetic acid]",30 to 50%,≥ 50%,30 to 50%,≥ 50%,< 30%,≥ 50%,< 30%,≥ 50%,≥ 50%,≥ 50%,< 30%,≥ 50%,< 30%,≥ 50%,–
"CC1=C(CC(=O)O)c2cc(F)ccc2/C1=C\c1ccc(COCc2ccc(Cl)cc2)cc1 [B103, (Z)-2-(1-(4-(((4-Chlorobenzyl)oxy)methyl)benzylidene)-5-fluoro-2-methyl-1H-inden-3-yl)acetic acid]",30 to 50%,≥ 50%,30 to 50%,≥ 50%,< 30%,≥ 50%,< 30%,≥ 50%,≥ 50%,≥ 50%,< 30%,≥ 50%,< 30%,≥ 50%,–
"CC1=C(CC(=O)O)c2cc(F)ccc2/C1=C\c1ccc(COCc2ccccc2)cc1 [B104, (Z)-2-(1-(4-((Benzyloxy)methyl)benzylidene)-5-fluoro-2-methyl-1H-inden-3-yl)-acetic acid]",30 to 50%,≥ 50%,< 30%,≥ 50%,≥ 50%,≥ 50%,≥ 50%,≥ 50%,≥ 50%,≥ 50%,30 to 50%,30 to 50%,≥ 50%,≥ 50%,–
"CC1=C(CC(=O)O)c2cc(F)ccc2/C1=C\c1ccc(COCc2ccc(F)c(F)c2)cc1 [B105, (Z)-2-(1-(4-(((3,4-Difluorobenzyl)oxy)methyl)benzylidene)-5-fluoro-2-methyl-1H-inden-3-yl)acetic acid]",30 to 50%,≥ 50%,< 30%,≥ 50%,30 to 50%,≥ 50%,30 to 50%,≥ 50%,30 to 50%,≥ 50%,30 to 50%,≥ 50%,≥ 50%,≥ 50%,–
"CC1=C(CC(=O)O)c2cc(F)ccc2/C1=C\c1ccc(COCc2ccc(F)c(Cl)c2)cc1 [B106, (Z)-2-(1-(4-(((3-Chloro-4-fluorobenzyl)oxy)methyl)benzylidene)-5-fluoro-2-methyl-1H-inden-3-yl)acetic acid]",≥ 50%,≥ 50%,< 30%,≥ 50%,≥ 50%,≥ 50%,< 30%,≥ 50%,30 to 50%,≥ 50%,30 to 50%,≥ 50%,≥ 50%,≥ 50%,–
